Data on 7 compounds can be found in patent publication US20150274777A1, “KETOAMIDE IMMUNOPROTEASOME INHIBITORS” (HOFFMANN-LA ROCHE INC., priority 2012, published 2015).

Assay [1] relates to mouse CAIA and CIA arthritis models. The note with it: cited from earlier work.
Assay [2] has as its system MRL/lpr lupus-prone mice model. The note with it: cited from earlier work.
The test system of assay [3] is DSS-induced colitis model. The note with it: DSS-induced colitis model in mice; cited from earlier work.
Assay [4] relates to IP10 level in PBMCs stimulated with CpG Type A. Nature of the assay: PBMC IP-10 Assay. Type of assay: cell-based. To be noted: CpG Type A 2.5 μM. The gist of the method: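 Human PBMCs (~2×10^5/well) preincubated 60 min at 37° C. with titrated compound (1% DMSO final), then stimulated with CpG Type A (ODN 2216) at 2.5 μM final overnight. Supernatant IP-10 quantified by AlphaLISA; viability of remaining cells by ATP luminescence.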

In assay [5] the test system is β2c/2i. Nature of the assay: Cell-Based Proteasome Activity/Selectivity Assay (Ramos cells), substrate (KQL)2Rh110. To be noted: highest concentration tested 20 μM. The gist of the method:
(§1)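 Ramos cells (5×10^4/well in DPBS) were treated with 4-fold compound dilutions (top 20 μM) for 30 min at 37 °C. A 2× mix of 0.025% digitonin, 20 μM of each Rh110 substrate and 0.5 M sucrose was added, then incubated 120 min at room temperature. Rh110 fluorescence was read at 500/519 nm.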

The target of assay [6] is T1, β1i (Homo sapiens, UniProt P28065+P40306).
T1 construct: protease activity associated with the proteasome complex in cultured cells; endogenous in cells; host or cells: Ramos cells
The experiment in a line: Cell-Based Proteasome Activity/Selectivity Assay (Ramos cells), substrate (PAL)2Rh110. To be noted: highest concentration tested 20 μM. The gist of the method: as §1

The target of assay [7] is T2, β1c (Homo sapiens, UniProt P28072+Q99436).
T2 construct: protease activity associated with the proteasome complex in cultured cells; endogenous in cells; host or cells: Ramos cells
The experiment in a line: Cell-Based Proteasome Activity/Selectivity Assay (Ramos cells), substrate (LLE)2 Rh110. The note with it: highest concentration tested 20 μM. The essentials:
as §1

Assay [8] has as its target T3, β5c (Homo sapiens, UniProt P20618+P28074).
T3 construct: protease activity associated with the proteasome complex in cultured cells; endogenous in cells; host or cells: Ramos cells
Nature of the assay: Cell-Based Proteasome Activity/Selectivity Assay (Ramos cells), substrate (WLA)2Rh110. The note with it: highest concentration tested 20 μM. The gist of the method:
as §1

For assay [9], the target named is T4, β5i (Homo sapiens, UniProt P20618+P28062).
T4 construct: protease activity associated with the proteasome complex in cultured cells; endogenous in cells; host or cells: Ramos cells
The experiment in a line: Cell-Based Proteasome Activity/Selectivity Assay (Ramos cells), substrate (ANW)2Rh110. To be noted: highest concentration tested 20 μM, read-out: Ic50 ramos:ac-(anw)2-r110. The essentials:
as §1

On to `COc1ccc(C[C@H](NC(=O)[C@H](C)NC(=O)CN2CCOCC2)C(=O)N[C@@H](Cc2ccccc2)C(=O)[C@@]2(C)CO2)cc1` [PR-957], for which the disease score result in assay [1] is recorded as “significantly decreased”. For the same compound, in [2], the disease progression entry is recorded as “prevented”; the “plasma cells numbers and levels of anti-dsDNA IgG” value is given as “reduced”. The “inflammation and tissue destruction” value in [3] was “reduced”.
What is called EC50 is the concentration at which the effect is half-maximal. A low value points to higher potency in that assay. The term IC50 denotes the point on the concentration scale where inhibition reaches its midpoint. Compound `C[C@H](NC(=O)OCc1ccccc1)C(=O)N[C@@H](Cc1c[nH]c2ccccc12)C(=O)N[C@@H](Cc1ccccc1)C(=O)C(=O)NC1CC1` [Example 32, {(S)-1-[(S)-1-((S)-1-Benzyl-2-cyclopropylcarbamoyl-2-oxo-ethylcarbamoyl)-2-(1H-indol-3-yl)-ethylcarbamoyl]-ethyl}-carbamic acid benzyl ester] displayed an EC50 in assay [4] of 0.94 µM. For the same compound, the IC50 in assay [5] is > 20 µM; in assay [6], 0.266 µM; in assay [7] it was 12.2 µM; in [8], 0.365 µM; in [9] it was 0.011 µM.
On to `COc1ccc(C[C@H](NC(=O)[C@H](C)NC(=O)c2cnccn2)C(=O)N[C@@H](Cc2ccccc2)C(=O)C(=O)NCc2ccccc2)cc1` [Example 29, Pyrazine-2-carboxylic acid {(S)-1-[(S)-1-((S)-1-benzyl-2-benzylcarbamoyl-2-oxo-ethylcarbamoyl)-2-(4-methoxy-phenyl)-ethylcarbamoyl]-ethyl}-amide], for which, in assay [4], it took 4.17 µM to reach a half-maximal effect (EC50). Also, the IC50 came out at 11.9 µM in [5]; 0.218 µM in assay [6]; 5.62 µM in [7]; 2.06 µM in assay [8]; 0.275 µM in [9].
The compound `Cc1cc(C(=O)N[C@@H](C)C(=O)N[C@@H](Cc2ccccc2)C(=O)N[C@@H](Cc2ccccc2)C(=O)C(=O)NCc2ccccc2)n(C)n1` [Example 53, 2,5-Dimethyl-2H-pyrazole-3-carboxylic acid {(S)-1-[(S)-1-((S)-1-benzyl-2-benzylcarbamoyl-2-oxo-ethylcarbamoyl)-2-phenyl-ethylcarbamoyl]-ethyl}-amide] had an EC50 in [4] of 4.9 µM. For the same compound, the IC50 in assay [5] is > 20 µM; in assay [6], 1.78 µM; in assay [7] it was > 20 µM; in assay [8], 1.36 µM; in assay [9], 0.221 µM.
As to `C[C@H](NC(=O)OCc1ccccc1)C(=O)N[C@@H](Cc1c[nH]c2ccccc12)C(=O)N[C@@H](Cc1ccccc1)C(=O)C(=O)NCc1ccccc1` [Example 16, {(S)-1-[(S)-1-((S)-1-Benzyl-2-benzylcarbamoyl-2-oxo-ethylcarbamoyl)-2-(1H-indol-3-yl)-ethylcarbamoyl]-ethyl}-carbamic acid benzyl ester], the EC50 in assay [4] worked out at 1.33 µM. For the same compound, the IC50 was > 20 µM in assay [5]; 0.274 µM in assay [6]; 18.3 µM in assay [7]; 0.926 µM in assay [8]; 0.017 µM in assay [9].
As to `COc1ccc(C[C@H](NC(=O)[C@H](C)NC(=O)C2Cc3ccccc3C2)C(=O)NC2(C(=O)C(=O)NCc3ccccc3)Cc3ccccc3C2)cc1` [Example 59, Indan-2-carboxylic acid {(S)-1-[(S)-1-(2-benzylaminooxalyl-indan-2-ylcarbamoyl)-2-(4-methoxy-phenyl)-ethylcarbamoyl]-ethyl}-amide], the concentration for a half-maximal effect (EC50) in assay [4] is 11.7 µM. The IC50 was > 20 µM in assay [5]; > 20 µM in assay [6]; > 20 µM in [7]; 1.36 µM in [8]; 0.089 µM in [9].
Regarding `CCCC[C@H](NC(=O)[C@H](Cc1c[nH]c2ccccc12)NC(=O)[C@H](C)NC(=O)C1=C(C)c2ccccc2C1)C(=O)C(=O)N[C@@H](C)c1ccccc1` [Example 7], the concentration for a half-maximal effect (EC50) in assay [4] was 4.01 µM. The IC50 in [5] is > 20 µM; in assay [6], 0.712 µM; in assay [7], 13.2 µM; in assay [8] it was 3.05 µM; in assay [9] it was 0.102 µM.
